# In patent US8518976B2, “Heteroaryl-substituted amides comprising a saturated linker group, and their use as pharmaceuticals” (Sanofi, priority 2005, dated 2013):
# System: eNOS promoter
# Test: Activation of eNOS transcription (eNOS promoter-luciferase reporter gene assay)
# Assay type: cell-based
# Conditions: human endothelial cell line stably transfected with eNOS promoter-luciferase construct, 18 h incubation, determined graphically; read-out: EC50 values of transcription induction ratios (TIR)
# Procedure: Activation of eNOS transcription was measured as described in detail by L^1 et al., “Activation of protein kinase C alpha and/or epsilon enhances transcription of the human endothelial nitric oxide synthase gene”, Mol. Pharmacol. 53 (1998) 630. Briefly, a 3.5 kB long fragment 5′ of the starting codon of the eNOS gene was cloned, sequenced and cloned in firefly luciferase expression plasmids to monitor activation of the eNOS promoter by reporter gene activity. A human endothelial cell line stable transfected and expressing this promoter-reporter construct was used for compound testing. Cells were incubated for 18 h with the compounds.
# All compounds were dissolved in sterile dimethyl sulfoxide (DMSO). A final concentration of 0.5% DMSO in complete medium was allowed. Induction of reporter gene expression in these cells was measured using a standard luciferase assay system (Promega, Cat. No. E150) according to the manufacturer's instructions. Luciferase induction in cells incubated with compounds were compared to those incubated with solvent alone. The ratio of both activities (transcription induction ratio, TIR) was plotted as a function of compound concentration. Typically, TIR values started at low concentrations at a ratio of 1, indicating no compound effect, and extended up to a maximum TIR value TIR(max) which indicates the increase of the eNOS transcription. EC50 values of transcription induction ratios as a function of compound concentration were determined graphically.
row,SMILES,EC50 [nM]
1,"O=C1CCCCCN1CCCc1ccc(-c2ccc(F)cc2)nc1 [Example 18, 1-(3-(6-(4-Fluorophenyl)pyridin-3-yl)propyl)azepan-2-one]",< 500
2,"O=C(O)CCCC(=O)NCCCc1ccc(-c2ccc(F)cc2)nc1 [Example 17, 4-(3-(6-(4-Fluorophenyl)pyridin-3-yl)propylcarbamoyl)butyric acid]",500 to 5000
3,"O=C1CCC(=O)N1CCNc1nc(-c2ccc(F)cc2)cs1 [Example 34, 1-(2-(4-(4-Fluorophenyl)thiazol-2-ylamino)ethyl)pyrrolidine-2,5-dione]",500 to 5000
4,"O=C1CSCCN1CCCc1ccc(-c2ccccc2Cl)nc1 [Example 7, 4-(3-(6-(2-Chlorophenyl)pyridin-3-yl)propyl)thiomorpholin-3-one]",500 to 5000
5,"O=C1CSC=CN1CCCc1ccc(-c2ccc(F)cc2)nc1 [Example 25, 4-(3-(6-(4-Fluorophenyl)pyridin-3-yl)propyl)-4H-[1,4]thiazin-3-one]",< 500
6,"O=C1CCC(=O)N1CCOc1ccc(-c2ccc(F)c(Cl)c2)nc1 [Example 50, 1-(2-(6-(3-Chloro-4-fluorophenyl)pyridin-3-yloxy)ethyl)pyrrolidine-2,5-dione]",< 500

# The next lines start with the values.
row,EC50 [nM],SMILES
1,500 to 5000,"O=C1CCC(=O)N1CCOc1ccc(-c2cccc3ccccc23)nc1 [Example 66, 1-(2-(6-(naphthalen-1-yl)pyridin-3-yloxy)ethyl)pyrrolidine-2,5-dione]"
2,< 500,"Cc1cc(-c2ccc(OCCN3C(=O)CCC3=O)cn2)ccc1F [Example 86, 1-(2-(6-(4-fluoro-3-methylphenyl)pyridin-3-yloxy)ethyl)pyrrolidine-2,5-dione]"
3,500 to 5000,"N#Cc1cccc(-c2ccc(OCCN3C(=O)CCC3=O)cn2)c1 [Example 64, 1-(2-(6-(3-cyanophenyl)pyridin-3-yloxy)ethyl)pyrrolidine-2,5-dione]"
4,< 500,"Cc1csc(-c2ccc(OCCN3C(=O)CCC3=O)cn2)c1 [Example 52, 1-(2-(6-(4-methylthiophen-2-yl)pyridin-3-yloxy)ethyl)pyrrolidine-2,5-dione]"
